# Several values for one entry are separate records, joined by “and”; a condition that tells them apart may be missing. Equal entries are not always repeated. Structures can show the parent of a compound that is named as a salt.
# Legend:
# 5-HT7R = molecular target: T1, 5-HT7R (Homo sapiens, UniProt P34969); assay: cAMP functional test: inhibition of cAMP production induced by 5-CT (10 nM); assay type: cell-based; conditions: for effect on 5-CT-induced cAMP accumulation: transfected HEK cells expressing 5-HT7R, 5-CT (10 nM); for Kb: cAMP production induced by 5-CT (10 nM), HEK-293 cells expressing 5-HT7R, read-out: KB (5-HT7R antagonistic properties)
# T1 construct: expressed in transfected cells; host or cells: HEK293
# T1 sequence (P34969 1-432): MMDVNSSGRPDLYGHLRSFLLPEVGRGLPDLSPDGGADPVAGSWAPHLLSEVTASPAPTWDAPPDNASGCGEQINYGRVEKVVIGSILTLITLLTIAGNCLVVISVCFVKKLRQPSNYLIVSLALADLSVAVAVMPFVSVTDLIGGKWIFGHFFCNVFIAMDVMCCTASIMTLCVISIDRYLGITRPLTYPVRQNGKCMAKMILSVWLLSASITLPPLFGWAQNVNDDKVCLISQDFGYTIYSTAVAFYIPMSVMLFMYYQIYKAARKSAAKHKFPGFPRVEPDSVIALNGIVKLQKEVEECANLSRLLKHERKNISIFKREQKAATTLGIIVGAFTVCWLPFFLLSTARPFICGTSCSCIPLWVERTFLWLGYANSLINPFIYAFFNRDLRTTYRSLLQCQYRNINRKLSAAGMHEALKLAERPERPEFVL
# human 5-HT7b receptors = molecular target: T2, human 5-HT7b receptors (Homo sapiens, UniProt P34969); assay: 5-HT7 competition radioligand binding assay ([3H]5-CT); conditions: for Ki: read-out: Ki ± S.D. 5-HT7 binding affinity
# T2 construct: expressed in transfected cells; host or cells: HEK293
# T2 sequence (P34969 1-432): as above
# Procedure: Novel scaffold endowed with 5-HT7R activity was identified by screening of the in-house compound library in a single compound concentration of 1 µM in a competition radioligand binding assay using [^3H]5-CT and HEK293 cells overexpressing the human 5-HT7b receptors.
# dopaminergic D2 = molecular target: T3, dopaminergic D2 (Homo sapiens, UniProt P14416); assay: D2 competition binding assay ([3H]-Raclopride); conditions: for Ki: [3H]-Raclopride, HEK293 cells with overexpressed receptor, read-out: Ki ± S.D. D2
# T3 construct: expressed in transfected cells; host or cells: HEK293
# T3 sequence (P14416 whole entry): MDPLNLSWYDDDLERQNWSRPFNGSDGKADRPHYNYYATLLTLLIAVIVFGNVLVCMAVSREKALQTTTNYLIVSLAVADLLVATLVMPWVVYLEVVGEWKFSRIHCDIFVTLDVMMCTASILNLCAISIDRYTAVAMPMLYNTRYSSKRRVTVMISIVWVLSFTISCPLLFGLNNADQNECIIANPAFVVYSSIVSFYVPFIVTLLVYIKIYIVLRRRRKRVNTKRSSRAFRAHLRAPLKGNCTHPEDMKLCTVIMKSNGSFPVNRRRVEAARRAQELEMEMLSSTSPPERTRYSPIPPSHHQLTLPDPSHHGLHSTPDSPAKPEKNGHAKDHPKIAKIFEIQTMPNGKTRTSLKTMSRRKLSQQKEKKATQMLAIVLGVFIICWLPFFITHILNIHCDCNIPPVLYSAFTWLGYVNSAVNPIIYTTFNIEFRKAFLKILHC
# 5-HT1A = molecular target: T4, 5-HT1A (Homo sapiens, UniProt P08908); assay: 5-HT1A competition binding assay ([3H]-8-OH-DPAT); conditions: HEK293 cells with overexpressed receptor, read-out: Ki ± S.D. 5-HT1A
# T4 construct: expressed in transfected cells; host or cells: HEK293
# T4 sequence (P08908 1-422): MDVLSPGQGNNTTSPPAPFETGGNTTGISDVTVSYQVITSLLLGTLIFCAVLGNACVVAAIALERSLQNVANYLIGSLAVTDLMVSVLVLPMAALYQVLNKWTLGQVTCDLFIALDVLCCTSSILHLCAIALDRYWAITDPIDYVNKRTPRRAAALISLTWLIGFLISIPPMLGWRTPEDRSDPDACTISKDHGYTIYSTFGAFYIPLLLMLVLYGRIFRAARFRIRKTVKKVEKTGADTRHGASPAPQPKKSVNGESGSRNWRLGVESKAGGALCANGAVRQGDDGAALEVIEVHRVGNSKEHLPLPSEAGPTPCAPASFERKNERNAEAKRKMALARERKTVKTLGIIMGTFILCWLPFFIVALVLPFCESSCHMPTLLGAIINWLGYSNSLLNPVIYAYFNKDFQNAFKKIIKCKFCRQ
# 5-HT2A = molecular target: T5, 5-HT2A (Homo sapiens, UniProt P28223); assay: 5-HT2A competition binding assay ([3H]-Ketanserin); conditions: CHO cells with overexpressed receptor, read-out: Ki ± S.D. 5-HT2A
# T5 construct: expressed in transfected cells; host or cells: CHO
# T5 sequence (P28223 whole entry, species assumed): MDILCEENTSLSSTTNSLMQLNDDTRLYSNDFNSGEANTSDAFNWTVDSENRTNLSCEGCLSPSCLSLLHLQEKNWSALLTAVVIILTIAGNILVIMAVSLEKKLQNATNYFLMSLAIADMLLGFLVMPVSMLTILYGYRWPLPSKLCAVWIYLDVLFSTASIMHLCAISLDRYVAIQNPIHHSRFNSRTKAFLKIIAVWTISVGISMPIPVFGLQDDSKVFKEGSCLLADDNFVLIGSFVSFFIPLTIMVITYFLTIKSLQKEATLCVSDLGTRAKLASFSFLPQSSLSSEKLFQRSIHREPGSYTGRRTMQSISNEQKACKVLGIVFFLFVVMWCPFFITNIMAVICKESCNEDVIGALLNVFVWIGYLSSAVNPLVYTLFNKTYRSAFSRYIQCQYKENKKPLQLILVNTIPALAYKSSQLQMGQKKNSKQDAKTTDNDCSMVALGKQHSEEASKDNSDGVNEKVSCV
# 5-HT6 = molecular target: T6, 5-HT6 (Homo sapiens, UniProt P50406); assay: 5-HT6 competition binding assay ([3H]-LSD); conditions: for Ki: [3H]-LSD, HEK293 cells with overexpressed receptor, read-out: Ki ± S.D. 5-HT6
# T6 construct: expressed in transfected cells; host or cells: HEK293
# T6 sequence (P50406 whole entry, species assumed): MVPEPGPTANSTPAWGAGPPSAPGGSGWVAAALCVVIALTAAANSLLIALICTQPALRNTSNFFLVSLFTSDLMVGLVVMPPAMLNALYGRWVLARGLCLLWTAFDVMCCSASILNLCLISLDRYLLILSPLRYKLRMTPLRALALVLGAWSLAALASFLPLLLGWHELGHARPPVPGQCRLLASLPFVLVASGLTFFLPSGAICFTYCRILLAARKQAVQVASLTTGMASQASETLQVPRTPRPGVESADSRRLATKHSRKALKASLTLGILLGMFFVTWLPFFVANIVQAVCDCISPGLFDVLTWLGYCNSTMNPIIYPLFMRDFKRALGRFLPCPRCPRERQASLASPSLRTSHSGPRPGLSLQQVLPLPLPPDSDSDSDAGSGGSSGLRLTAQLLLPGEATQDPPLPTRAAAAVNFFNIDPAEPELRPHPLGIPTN
# [1] = HEK293 cells overexpressing human 5-HT7b receptors, at least two independent experiments in triplicate
SMILES,melting point,Ki (human 5-HT7b receptors; [1]) [nM],further results
"CC1CCN(CC[C@H]2CCCN2S(=O)(=O)c2cccc(O)c2)CC1 [SB-269970, (2R)-1-((3-hydroxyphenyl)sulfonyl)-2-(2-(4-methyl-1-piperidinyl)ethyl)pyrrolidine, reference compound]",,,effect on 5-CT-induced cAMP accumulation (5-HT7R): dose-dependently decrease
"CN1CCN(c2nccc(-c3cc4ccccc4s3)n2)CC1 (as salt: hydrobromid) [Compound 37, 4-(Benzothiophen-2-yl)-2-(4-methylpiperazin-1-yl)pyrimidine]",299 to 300 °C,,
"CN1CCCN(c2nccc(-c3ccoc3)n2)CC1 (as salt: hydrobromid) [Compound 42, 4-(3-Furyl)-2-(4-methylhomopiperazin-1-yl)pyrimidine]",176 to 177 °C,,
"CCc1cc(-c2ccoc2)nc(N2CCN(C)CC2)n1 [Compound 12, 4-Ethyl-6-(3-furyl)-2-(4-methylpiperazin-1-yl)pyrimidine]",,7.1 ± 1.4,Kb (5-HT7R): 12 nM; effect on 5-CT-induced cAMP accumulation (5-HT7R): dose-dependently decrease; Ki (dopaminergic D2): 466 ± 39 nM; Ki (5-HT1A): 1500 ± 164 nM; Ki (5-HT2A): 10 nM and 12 nM; Ki (5-HT6): 121 ± 14 nM
"Cc1cc(-c2ccnc(N3CCN(C)CC3)n2)co1 (as salt: hydrobromid) [Compound 24, 4-(5-Methyl-3-furyl)-2-(4-methylpiperazin-1-yl)pyrimidine]",275 °C (dec.),,
"CN1CCN(c2nc(-c3ccoc3)cc(C(F)(F)F)n2)CC1 (as salt: hydrochloride) [Compound 16, 4-(3-Furyl)-2-(4-methylpiperazin-1-yl)-6-(trifluoromethyl)pyrimidine]",> 300 °C,,
"c1cc(-c2ccoc2)nc(N2CCCCC2)n1 (as salt: hydrobromid) [Compound 43, 4-(3-Furyl)-2-(piperidin-1-yl)pyrimidine]",190 to 191 °C,,
"c1cc(-c2ccoc2)nc(NCCCc2ncc[nH]2)n1 (as salt: hydrobromid) [Compound 46, 4-(3-Furyl)-N-[3-(1H-imidazol-2-yl)propyl]pyrimidin-2-amine]",234 to 236 °C,,
"c1cc(-c2ccoc2)nc(N2CC[N+]3(CCOCC3)CC2)n1 (as salt: iodide) [Compound 47, 4-[4-(3-Furyl)pyrimidin-2-yl]piperazine-1-spiro-1-morpholinium iodide]",> 200 °C (dec.),,
"CCc1cc(-c2ccoc2)nc(N2CCN(C)CC2)n1 (as salt: hydrobromid) [Compound 12, 4-Ethyl-6-(3-furyl)-2-(4-methylpiperazin-1-yl)pyrimidine]",287 to 288 °C,,
"Cc1cc(-c2cccs2)cc(N2CCN(C)CC2)n1 (as salt: hydrobromid) [Compound 56, 2-Methyl-6-(4-methylpiperazin-1-yl)-4-(2-thienyl)pyridine]",132 to 134 °C,,
"CCCCCCc1cc(-c2coc(C)c2)nc(N2CCN(C)CC2)n1 (as salt: hydrobromid) [Compound 25, 4-n-Hexyl-6-(5-methyl-3-furyl)-2-(4-methylpiperazin-1-yl)pyrimidine]",242 °C (dec.),,
"CCCCc1cc(-c2ccoc2)nc(N2CCN(C)CC2)n1 [Compound 13, 4-(n-Butyl)-6-(3-furyl)-2-(4-methylpiperazin-1-yl)pyrimidine]",,1.6 ± 0.2,Kb (5-HT7R): 60 nM; effect on 5-CT-induced cAMP accumulation (5-HT7R): dose-dependently decrease; fold more active than 12 at D2 receptors (dopaminergic D2; 13 versus 12): 13 fold; Ki (dopaminergic D2): 37 ± 4 nM; Ki (5-HT1A): 637 ± 53 nM; Ki (5-HT2A): 12 nM and 10 nM; fold more active than 12 at 5-HT6 (5-HT6; 13 versus 12): 10 fold; Ki (5-HT6): 12 ± 2 nM
"CCCc1cnc(N2CCN(C)CC2)nc1-c1ccoc1 (as salt: hydrobromid) [Compound 21, 4-(3-Furyl)-2-(4-methylpiperazino)-5-propylpyrimidine]",206 to 208 °C,,
"CCCN1CCN(c2nccc(-c3ccoc3)n2)CC1 (as salt: hydrobromid) [Compound 4, 4-(3-Furyl)-2-(4-propylpiperazin-1-yl)pyrimidine]",274 to 277 °C,,
"c1cc(-c2ccoc2)nc(N2CCNCC2)n1 (as salt: hydrobromid) [Compound 1, 4-(3-Furyl)-2-(piperazin-1-yl)pyrimidine]",241 to 242 °C,,
"c1ccc(CN2CCN(c3nccc(-c4ccoc4)n3)CC2)cc1 (as salt: hydrobromid) [Compound 5, 2-(4-Benzylpiperazin-1-yl)-4-(3-furyl)pyrimidine]",> 280 °C,,
"Cc1ccc(-c2ccnc(N3CCN(C)CC3)n2)o1 (as salt: hydrobromid) [Compound 29, 4-(5-Methyl-2-furyl)-2-(4-methylpiperazin-1-yl)pyrimidine]",263 to 265 °C,,

SMILES,melting point,Ki (human 5-HT7b receptors; [1]) [nM],further results
"CN1CCN(c2nccc(-c3cc4ccccc4o3)n2)CC1 (as salt: hydrobromid) [Compound 36, 4-(Benzofuran-2-yl)-2-(4-methylpiperazin-1-yl)pyrimidine]",> 300 °C,,
"Cc1occc1-c1ccnc(N2CCN(C)CC2)n1 (as salt: hydrobromid) [Compound 23, 4-(2-Methyl-3-furyl)-2-(4-methylpiperazin-1-yl)pyrimidine]",263 to 265 °C,,
"CCCCc1nc(N2CCN(C)CC2)nc(-c2ccoc2)c1CCC (as salt: hydrobromid) [Compound 22, 4-n-Butyl-6-(3-furyl)-2-(4-methylpiperazino)-5-propylpyrimidine]",203 °C (dec.),,
"CCCCc1cc(-c2ccoc2)nc(N2CCN(C)CC2)n1 (as salt: hydrobromid) [Compound 13, 4-(n-Butyl)-6-(3-furyl)-2-(4-methylpiperazin-1-yl)pyrimidine]",179 to 180 °C,,
c1cc(-c2ccoc2)nc(N2CCOCC2)n1 [Compound 44],58 to 59 °C,> 10000,Ki ± S.D. 5-HT7 binding affinity (human 5-HT7b receptors; [1]): no affinity
c1ccc(CCCN2CCN(c3nccc(-c4ccoc4)n3)CC2)cc1 [Compound 7],,1.6 ± 0.2,
"CN1CCN(c2nc(C#CC3=CCCCC3)cc(-c3ccoc3)n2)CC1 [Compound 17, 4-(Cyclohexenylethynyl)-6-(3-furyl)-2-(4-methylpiperazin-1-yl)pyrimidine]",,18 ± 3,
"CN1CCCN(c2nccc(-c3ccoc3)n2)CC1 [Compound 42, 4-(3-Furyl)-2-(4-methylhomopiperazin-1-yl)pyrimidine]",,148 ± 17,
"CN1CCN(c2cccc(-c3ccco3)n2)CC1 [Compound 59, 2-(2-Furyl)-6-(4-methylpiperazin-1-yl)pyridine]",,1140 ± 154,
"CN1CCN(c2nccc(-c3ccc(O)cc3)n2)CC1 [Compound 35, 4-(4-Hydroxyphenyl)-2-(4-methylpiperazin-1-yl)pyrimidine]",,> 10000,
"CN1CCN(c2nc(-c3ccoc3)cc(C(F)(F)F)n2)CC1 [Compound 16, 4-(3-Furyl)-2-(4-methylpiperazin-1-yl)-6-(trifluoromethyl)pyrimidine]",,8.3 ± 1.7,
"CN1CCN(c2nccc(-c3cccs3)n2)CC1 [Compound 32, 2-(Methylpiperazin-1-yl)-4-(2-thienyl)pyrimidine]",,480 ± 65,
"CN1CCN(c2nccc(-c3ccoc3)n2)CC1 [Compound 2, 4-(3-Furyl)-2-(4-methylpiperazin-1-yl)pyrimidine]",,7.2 ± 1.4,"inhibition at 1 µM (human 5-HT7b receptors; single compound concentration of 1 µM, HEK293 cells, read-out: inhibition in library screening): > 60%"
"Cc1cc(-c2ccoc2)cc(N2CCN(C)CC2)c1 [Compound 61, 1-[3-(3-Furyl)-5-methylphenyl]-4-methylpiperazine]",,37 ± 3,
"Cc1cc(-c2ccco2)cc(N2CCN(C)CC2)c1 [Compound 64, 1-[3-(2-Furyl)-5-methylphenyl]-4-methylpiperazine]",,312 ± 25,
"CN1CCN(c2nccc(-c3ccsc3)n2)CC1 [Compound 30, 2-(Methylpiperazin-1-yl)-4-(3-thienyl)pyrimidine]",,83 ± 9,
"CN1CCN(c2cc(-c3cccs3)ccn2)CC1 [Compound 53, 2-(4-Methylpiperazin-1-yl)-4-(2-thienyl)pyridine]",,396 ± 55,
